One substance from patent US20150299277A1, “AGENT FOR TREATING OR PREVENTING SYSTEMIC INFLAMMATORY RESPONSE SYNDROME” (THE UNIVERSITY OF TOKYO, priority 2012, published 2015) can be followed below.

The test system of the test is Calf Thymus Histones. The experiment in a line: Dose-dependent precipitate formation (supernatant after centrifugation). The settings on record: PTX3 0, 12.5, 25, 50 μg/mL; histones 50 μg/mL. The test is classed as binding. The method, then: Full-length PTX3 at each concentration (0, 12.5, 25, 50 μg/mL) was mixed with Calf Thymus Histones (50 μg/mL) or histone H4 (50 μg/mL), and the mixture was centrifuged. The obtained supernatant was subjected to immunoblotting using PPZ-1228 or SYPRO Ruby staining.

On to “full-length PTX3: full-length human pentraxin 3 (1-381 amino acids, SEQ ID NO: 2), used tag-free or Myc- and His-tagged”, for which the “precipitate formation with Calf Thymus Histones” value is “precipitated as an insoluble product”.
